The target of test [1] is hPARG (C-terminal His6-tag) (Homo sapiens (Human), UniProt Q86W56). Kind of test: PARG Enzymatic Activity Assay (HTRF). In kind it is biochemical. Conditions: hPARG 65 pM final, biotinylated-NAD ribosylated PARP1 8 nM final. The gist of the method: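 Readout is time-resolved fluorescence at 620 and 665 nm after 60 min RT detection with streptavidin-Eu cryptate and anti-6HIS-XL665; IC50 by 4-parameter fit, 1% DMSO and no-enzyme controls. Reaction: 8 nM final ribosylated PARP1 substrate for 10 min RT, following 60 min RT enzyme (65 pM)–compound preincubation in Tris pH 7.4 buffer with EDTA, DTT, KCl.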
A general note: Time-resolved FRET reads energy transfer from a long-lived donor to a nearby acceptor.

For a further test, the system named is Kuramochi cell line. The test is described as follows: Cell Viability Assay (Cell Titer-Glo, 7 days). In kind it is cell-based. Conditions: 168 h, Kuramochi cells, 7 days incubation, read-out: PARG Cell viability (IC50). In short, it runs like this: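 IC50 from a four-parameter fit of CellTiter-Glo luminescence, scaled between DMSO-treated (high) and medium-only (low) wells. Kuramochi cells (400/well, RPMI/10% FBS) exposed 7 days at 37 °C to 9 concentrations, 3-fold steps, in duplicate.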
For orientation: In ATP-based viability assays light output follows the ATP content of the culture.

Each structure is given as a SMILES string. Bounds are passed on as bounds.

Consider 21 compounds from US20250388589A1, “TRICYCLIC HETEROCYCLIC DERIVATIVES, COMPOSITIONS AND USES THEREOF” (Danatlas Pharmaceuticals Co., Ltd., priority 2022, published 2025).

For orientation: IC50 means the concentration that inhibits the measured activity by half.

Chain of hPARG (C-terminal His6-tag) (Q86W56 whole entry): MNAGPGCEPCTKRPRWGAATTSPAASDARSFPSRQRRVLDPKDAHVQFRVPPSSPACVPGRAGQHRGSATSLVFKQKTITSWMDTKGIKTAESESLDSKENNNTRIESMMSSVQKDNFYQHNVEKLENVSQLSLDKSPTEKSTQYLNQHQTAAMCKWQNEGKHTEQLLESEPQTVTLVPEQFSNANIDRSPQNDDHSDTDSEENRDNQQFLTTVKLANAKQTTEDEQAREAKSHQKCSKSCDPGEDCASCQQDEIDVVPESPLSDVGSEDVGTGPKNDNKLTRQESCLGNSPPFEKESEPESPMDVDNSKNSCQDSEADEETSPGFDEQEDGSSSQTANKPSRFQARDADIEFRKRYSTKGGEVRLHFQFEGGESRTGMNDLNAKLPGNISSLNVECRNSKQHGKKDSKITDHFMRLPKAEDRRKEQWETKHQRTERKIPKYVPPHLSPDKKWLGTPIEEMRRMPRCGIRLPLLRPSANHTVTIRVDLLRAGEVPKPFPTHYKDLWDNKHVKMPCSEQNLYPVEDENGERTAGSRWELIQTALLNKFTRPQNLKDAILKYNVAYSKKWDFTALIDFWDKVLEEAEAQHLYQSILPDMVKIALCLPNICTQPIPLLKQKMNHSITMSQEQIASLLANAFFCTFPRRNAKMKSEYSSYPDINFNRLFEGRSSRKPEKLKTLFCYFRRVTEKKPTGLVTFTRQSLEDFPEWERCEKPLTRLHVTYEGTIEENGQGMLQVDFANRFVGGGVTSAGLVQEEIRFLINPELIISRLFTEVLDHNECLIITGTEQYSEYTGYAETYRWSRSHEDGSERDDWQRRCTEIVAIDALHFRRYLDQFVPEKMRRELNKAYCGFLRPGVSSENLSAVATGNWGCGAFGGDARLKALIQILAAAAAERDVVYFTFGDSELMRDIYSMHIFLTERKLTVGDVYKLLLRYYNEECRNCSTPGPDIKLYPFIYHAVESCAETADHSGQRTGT

For the compound `CN(C)C(=O)N1CCC(c2ncnc3c2c2ccc(S(=O)(=O)NC4(C)CC4)cc2n3-c2nnc(C(F)F)s2)CC1` [Example 153, 4-(9-(5-(Difluoromethyl)-1,3,4-thiadiazol-2-yl)-7-(N-(1-methylcyclopropyl)sulfamoyl)-9H-pyrimido[4,5-b]indol-4-yl)-N,N-dimethylpiperidine-1-carboxamide], the IC50 (in test [1]; with Kuramochi cell line) was under 0.1 µM throughout.

On to `CC(C)S(=O)(=O)N1CCC(c2ncnc3c2c2ccc(S(=O)(=O)NC4(C#N)CC4)cc2n3-c2nnc(C(F)F)s2)CC1` [Example 123, N-(1-Cyanocyclopropyl)-9-(5-(difluoromethyl)-1,3,4-thiadiazol-2-yl)-4-(1-(isopropylsulfonyl)piperidin-4-yl)-9H-pyrimido[4,5-b]indole-7-sulfonamide], for which the 50% inhibitory concentration (IC50) (in test [1]; in the test with Kuramochi cell line) was under 0.1 µM in each case.

With `N#CC1(NS(=O)(=O)c2ccc3c4c(N5CCN(C(=O)C6CCOCC6)CC5)ncnc4n(-c4nnc(C(F)F)s4)c3c2)CC1` [Example 12, N-(1-Cyanocyclopropyl)-9-(5-(difluoromethyl)-1,3,4-thiadiazol-2-yl)-4-(4-(tetrahydro-2H-pyran-4-carbonyl)piperazin-1-yl)-9H-pyrimido[4,5-b]indole-7-sulfonamide], the concentration for half-maximal inhibition (IC50) (in test [1]; in the test on Kuramochi cell line) was under 0.1 µM throughout.

Regarding `CN(C)C(=O)N1CCC(c2ccnc3c2c2ccc(S(=O)(=O)NC4(C)CC4)cc2n3-c2nnc(C(F)F)s2)CC1` [Example 195, 4-(9-(5-(Difluoromethyl)-1,3,4-thiadiazol-2-yl)-7-(N-(1-methylcyclopropyl)sulfamoyl)-9H-pyrido[2,3-b]indol-4-yl)-N,N-dimethylpiperidine-1-carboxamide], the IC50 was under 0.1 µM in test [1] and 0.1 to 1 µM with Kuramochi cell line.

Turning to `C[C@H]1CN(c2ncnc3c2c2ccc(S(=O)(=O)NC4(C#N)CC4)cc2n3-c2nnc(C(F)F)s2)CCN1CC(F)(F)F` [Example 159, (S)-N-(1-cyanocyclopropyl)-9-(5-(difluoromethyl)-1,3,4-thiadiazol-2-yl)-4-(3-methyl-4-(2,2,2-trifluoroethyl)piperazin-1-yl)-9H-pyrimido[4,5-b]indole-7-sulfonamide], the IC50 in test [1] was under 0.1 µM; in the test with Kuramochi cell line, 0.1 to 1 µM.

Consider `CN(C)C1CCN(c2ncnc3c2c2ccc(S(=O)(=O)NC4(C#N)CC4)cc2n3-c2nnc(C(F)F)s2)C[C@@H]1F` (stereo partly drawn) [Example 175, N-(1-cyanocyclopropyl)-9-(5-(difluoromethyl)-1,3,4-thiadiazol-2-yl)-4-((3S)-4-(dimethylamino)-3-fluoropiperidin-1-yl)-9H-pyrimido[4,5-b]indole-7-sulfonamide], for which the IC50 (in test [1]; in the test on Kuramochi cell line) was under 0.1 µM throughout.

As to `N#CC1(NS(=O)(=O)c2ccc3c4c(N5C[C@H]6COC[C@H]6C5)ncnc4n(-c4nnc(C(F)F)s4)c3c2)CC1` [Example 169, N-(1-Cyanocyclopropyl)-9-(5-(difluoromethyl)-1,3,4-thiadiazol-2-yl)-4-((3aR,6aS)-tetrahydro-1H-furo[3,4-c]pyrrol-5(3H)-yl)-9H-pyrimido[4,5-b]indole-7-sulfonamide], the IC50 (in test [1]; in the test on Kuramochi cell line) was under 0.1 µM each time.

Regarding `N#CC1(NS(=O)(=O)c2ccc3c4c(N5CCN(c6ncccn6)CC5)ncnc4n(-c4nnc(C(F)F)s4)c3c2)CC1` [Example 18, N-(1-Cyanocyclopropyl)-9-(5-(difluoromethyl)-1,3,4-thiadiazol-2-yl)-4-(4-(pyrimidin-2-yl)piperazin-1-yl)-9H-pyrimido[4,5-b]indole-7-sulfonamide], the IC50 (in test [1]; with Kuramochi cell line) was 0.1 to 1 µM in each case.

`CC1(NS(=O)(=O)c2ccc3c4c(C5CCN(C(=O)C(C)(C)O)CC5)ncnc4n(-c4nnc(C(F)F)s4)c3c2)CC1` [Example 94, 9-(5-(Difluoromethyl)-1,3,4-thiadiazol-2-yl)-4-(1-(2-hydroxy-2-methylpropanoyl)piperidin-4-yl)-N-(1-methylcyclopropyl)-9H-pyrimido[4,5-b]indole-7-sulfonamide]: the IC50 (in test [1]; in the test with Kuramochi cell line) was under 0.1 µM in each case.

Regarding `C[C@@H]1CN(C(=O)N(C)C)CCN1c1ncnc2c1c1ccc(S(=O)(=O)NC3(C#N)CC3)cc1n2-c1nnc(C(F)F)s1` [Example 73, (R)-4-(7-(N-(1-Cyanocyclopropyl)sulfamoyl)-9-(5-(difluoromethyl)-1,3,4-thiadiazol-2-yl)-9H-pyrimido[4,5-b]indol-4-yl)-N,N,3-trimethylpiperazine-1-carboxamide], the IC50 (in test [1]; with Kuramochi cell line) was under 0.1 µM throughout.

With `N#CC1(NS(=O)(=O)c2ccc3c4c(N5CCC6(CCOC6)CC5)ncnc4n(-c4nnc(C(F)F)s4)c3c2)CC1` [Example 183, N-(1-Cyanocyclopropyl)-9-(5-(difluoromethyl)-1,3,4-thiadiazol-2-yl)-4-(2-oxa-8-azaspiro[4.5]decan-8-yl)-9H-pyrimido[4,5-b]indole-7-sulfonamide], the IC50 (in test [1]; with Kuramochi cell line) was under 0.1 µM each time.

With `N#CC1(NS(=O)(=O)c2ccc3c4c(N5CCN(C(=O)C6CCC6)CC5)ncnc4n(-c4nnc(C(F)F)s4)c3c2)CC1` [Example 30, N-(1-Cyanocyclopropyl)-4-(4-(cyclobutanecarbonyl)piperazin-1-yl)-9-(5-(difluoromethyl)-1,3,4-thiadiazol-2-yl)-9H-pyrimido[4,5-b]indole-7-sulfonamide], the IC50 in test [1] is under 0.1 µM; with Kuramochi cell line, 0.1 to 1 µM.

Turning to `N#CC1(NS(=O)(=O)c2ccc3c4c(N5CC6CCC(C5)O6)ncnc4n(-c4nnc(C(F)F)s4)c3c2)CC1` [Example 201, 4-(8-Oxa-3-azabicyclo[3.2.1]octan-3-yl)-N-(1-cyanocyclopropyl)-9-(5-(difluoromethyl)-1,3,4-thiadiazol-2-yl)-9H-pyrimido[4,5-b]indole-7-sulfonamide], the IC50 (in test [1]; in the test on Kuramochi cell line) was under 0.1 µM each time.

As to `CC(C)C(=O)N1[C@H](C)CN(c2ncnc3c2c2ccc(S(=O)(=O)NC4(C)CC4)cc2n3-c2nnc(C(F)F)s2)C[C@@H]1C` [Example 190, 9-(5-(Difluoromethyl)-1,3,4-thiadiazol-2-yl)-4-((3R,5S)-4-isobutyryl-3,5-dimethylpiperazin-1-yl)-N-(1-methylcyclopropyl)-9H-pyrimido[4,5-b]indole-7-sulfonamide], the IC50 (in test [1]; in the test with Kuramochi cell line) was under 0.1 µM in each case.

Regarding `N#CC1(NS(=O)(=O)c2ccc3c4c(N5CCC6(CCCO6)CC5)ncnc4n(-c4nnc(C(F)F)s4)c3c2)CC1` [Example 182, N-(1-Cyanocyclopropyl)-9-(5-(difluoromethyl)-1,3,4-thiadiazol-2-yl)-4-(1-oxa-8-azaspiro[4.5]decan-8-yl)-9H-pyrimido[4,5-b]indole-7-sulfonamide], the IC50 (in test [1]; in the test on Kuramochi cell line) was under 0.1 µM in each case.

`N#CC1(NS(=O)(=O)c2ccc3c4c(N5CCN(C(=O)C6CCOC6)CC5)ncnc4n(-c4nnc(C(F)F)s4)c3c2)CC1` (stereo not drawn) [Example 34, N-(1-Cyanocyclopropyl)-9-(5-(difluoromethyl)-1,3,4-thiadiazol-2-yl)-4-(4-(tetrahydrofuran-3-carbonyl)piperazin-1-yl)-9H-pyrimido[4,5-b]indole-7-sulfonamide]: the IC50 (in test [1]; with Kuramochi cell line) was under 0.1 µM each time.

For `N#CC1(NS(=O)(=O)c2ccc3c4c(N5CCC6(CC5)COC6)ncnc4n(-c4nnc(C(F)F)s4)c3c2)CC1` [Example 20, N-(1-Cyanocyclopropyl)-9-(5-(difluoromethyl)-1,3,4-thiadiazol-2-yl)-4-(2-oxa-7-azaspiro[3.5]nonan-7-yl)-9H-pyrimido[4,5-b]indole-7-sulfonamide], the IC50 (in test [1]; in the test with Kuramochi cell line) was under 0.1 µM throughout.

Regarding `N#CC1(NS(=O)(=O)c2ccc3c4c(N5CCN6C(=O)COC[C@H]6C5)ncnc4n(-c4nnc(C(F)F)s4)c3c2)CC1` [Example 168, (R)—N-(1-Cyanocyclopropyl)-9-(5-(difluoromethyl)-1,3,4-thiadiazol-2-yl)-4-(4-oxohexahydropyrazino[2,1-c][1,4]oxazin-8(1H)-yl)-9H-pyrimido[4,5-b]indole-7-sulfonamide], the IC50 (in test [1]; with Kuramochi cell line) was under 0.1 µM in each case.

Regarding `CC(C)C(=O)N1[C@H](C)CN(c2ncnc3c2c2ccc(S(=O)(=O)NC4(C#N)CC4)cc2n3-c2nnc(C(F)F)s2)C[C@H]1C` [Example 31, N-(1-Cyanocyclopropyl)-9-(5-(difluoromethyl)-1,3,4-thiadiazol-2-yl)-4-((3R,5R)-4-isobutyryl-3,5-dimethylpiperazin-1-yl)-9H-pyrimido[4,5-b]indole-7-sulfonamide], the IC50 (in test [1]; in the test on Kuramochi cell line) was 0.1 to 1 µM in each case.

Take `N#CC1(NS(=O)(=O)c2ccc3c4c(N5CC[C@@H](O)[C@@H](F)C5)ncnc4n(-c4nnc(C(F)F)s4)c3c2)CC1` [Example 174, N-(1-cyanocyclopropyl)-9-(5-(difluoromethyl)-1,3,4-thiadiazol-2-yl)-4-((3S,4R)-3-fluoro-4-hydroxypiperidin-1-yl)-9H-pyrimido[4,5-b]indole-7-sulfonamide]: the IC50 (in test [1]; with Kuramochi cell line) was under 0.1 µM each time.

Consider `CC(C)C(=O)N1CCC(c2ncnc3c2c2ccc(S(=O)(=O)NC4(C#N)CC4)cc2n3-c2nnc(C(F)F)s2)CC1` [Example 76, N-(1-Cyanocyclopropyl)-9-(5-(difluoromethyl)-1,3,4-thiadiazol-2-yl)-4-(1-isobutyrylpiperidin-4-yl)-9H-pyrimido[4,5-b]indole-7-sulfonamide], for which the IC50 (in test [1]; in the test with Kuramochi cell line) was under 0.1 µM throughout.
